Earlier results as cited in US20200113899A1, “STATIN COMPOSITIONS AND METHODS FOR USE IN TREATING SYNUCLEINOPATHIES” (CHASE THERAPEUTICS CORPORATION, priority 2017, published 2020).
Blank lines part the entries; values can stand above or below the molecule they belong to.

How the values were obtained:
[1] = test system: alpha-synuclein; conditions: transgenic mouse models
[2] = pramipexole 5 mg/day
[3] = test system: alpha-synuclein; conditions: Parkinson patients, therapeutic doses, compared with pre-treatment values; magnitude of the effect small
[4] = 535 PD patients
[5] = test system: SH-SY5Y cells

Structure (SMILES): CC[C@H](C)C(=O)O[C@H]1C[C@@H](C)C=C2C=C[C@H](C)[C@H](CC[C@@H]3C[C@@H](O)CC(=O)O3)[C@H]21 [lovastatin, (1S,3R,7S,8S,8aR)-8-{2-[(2R,4R)-4-Hydroxy-6-oxooxan-2-yl]ethyl}-3,7-dimethyl-1,2,3,7,8,8a-hexahydronaphthalen-1-yl (2S)-2-methylbutanoate]
alpha-synuclein accumulation and oxidation [1]: ameliorated

patients with nausea [2]: 76%
patients with vomiting [2]: 39%
Structure (SMILES): CCCN[C@H]1CCc2nc(N)sc2C1 [pramipexole, (S)-6-propylamino-4,5,6,7-tetrahydro-1,3-benzothiazole-2-amine]
patients not able to complete the study ([2]; presumably because of intolerable GI adverse events): 36%
relative expression of alpha-synuclein [3]: significantly lowered
neuroprotective (disease modifying) activity [4]: failed to evidence neuroprotective (i.e., disease modifying) activity

Structure (SMILES): CC(C)c1nc(N(C)S(C)(=O)=O)nc(-c2ccc(F)cc2)c1/C=C/[C@@H](O)C[C@@H](O)CC(=O)O [rosuvastatin, (3R,5S,6E)-7-[4-(4-Fluorophenyl)-2-(N-methylmethanesulfonamido)-6-(propan-2-yl)pyrimidin-5-yl]-3,5-dihydroxyhept-6-enoic acid]
effect against rotenone-induced neurotoxicity [5]: neuroprotective effect
α-synuclein expression [5]: modulation
